Assay results published in patent US6436939B2, “Method for using 2-aryloxyalkylaminobenzoxazoles and 2-aryloxyalkylaminobenzothiazoles as H3 antagonists” (Ortho-McNeil Pharmaceutical, Inc., priority 2000, dated 2002).
Structures can show the parent of a compound that is named as a salt.

Target: T1, human histamine H3 receptor (Homo sapiens, UniProt Q9Y5N1)
T1 construct: expressed in transfected cells; membranes prepared
Experiment: [3H]-N-methylhistamine binding to membranes of H3 receptor-expressing SK-N-MC cells
Conditions: 0.8 nM [3H]-N-methylhistamine, 45 minutes at 25° C., SK-N-MC cell membranes; KI from IC50 with KD 800 pM
Protocol: In the present invention receptor binding was determined using the human histamine H3 receptor (See Lovenberg et al Mol. Pharmacol. 1999, 1107). Screening using the human receptor is particularly important for the identification of new therapies for the treatment of human disease. Conventional binding assays for example are determined using rat synaptosomes (Garbarg et al J. Pharmacol. Exp. Ther. 1992, 263, 304), rat cortical membranes (West et al Mol. Pharmacol. 1990, 610), and guinea pig brain (Korte et al Biochem. Biophys. Res. Commun. 1990, 978). Only limited studies have been performed previously using human tissue but these allude to significant differences in the pharmacology of rodent and primate receptors (West et al Eur. J. Pharmacol. 1999, 233).
A 10 cm tissue culture dish with a confluent monolayer of SK-N-MC cells was split two days prior to transfection. Using sterile technique the media was removed and the cells were detached from the dish by the addition of trypsin. One fifth of the cells were then placed onto a new 10 cm dish. Cells were grown in a 37° C. incubator with 5% CO2 in Minimal Essential Media Eagle with 10% Fetal Bovine Serum. After two days cells were approximately 80% confluent. These were removed from the dish with trypsin and pelleted in a clinical centrifuge. The pellet was then re-suspended in 400 μL complete media and transferred to an electroporation cuvette with a 0.4 cm gap between the electrodes (Bio-Rad #165-2088). One microgram supercoiled H3 receptor CDNA was added to the cells and mixed. The voltage for the electroporation was set at 0.25 kV, the capacitance is set at 960 μF.
After electroporation the cells were diluted into 10 mL complete media and plated onto four 10 cm dishes. Due to the variability in the efficiency of electroporation, four different concentrations of cells were plated. The ratios used were: 1:20, 1:10, and 1:5, with the remainder of the cells being added to the fourth dish. The cells were allowed to recover for 24 hours before adding the selection media (complete media with 600 μg/ml G418). After 10 days dishes were analyzed for surviving colonies of cells. Dishes with well-isolated colonies were used. Cells from individual colonies were isolated and tested. SK-N-MC cells were used because they give efficient coupling for inhibition of adenylate cyclase. The clones that gave the most robust inhibition of adenylate cyclase in response to histamine were used for further study.
Cell pellets from histamine H3 receptor-expressing SK-N-MC cells were homogenized in 20 mM TrisHCl/0.5 mM EDTA. Supernatants from a 800 g spin were collected, reccentrifuged at 30,000 g for 30 minutes. Pellets were rehomogenized in 50 mM Tris/5 mM EDTA (pH 7.4). Membranes were incubated with 0.8 nM [^3H]-N-methylhistamine plus/minus test compounds for 45 minutes at 25° C. and harvested by rapid filtration over GF/C glass fiber filters (pretreated with 0.3% polyethylenimine) followed by four washes with ice cold buffer. Filters were dried, added to 4 mL scintillation cocktail and then counted on a liquid scintillation counter. Non-specific binding was defined with 10 μM histamine according to Chen and Prusoff, Biochem. Pharmacol. 1973, 22:3099. KI values were calculated based on a KD of 800 pM and a ligand concentration ([L]) of 800 pM according to the formula: […]
KI values are provided in the examples above.

T1 sequence (Q9Y5N1 whole entry): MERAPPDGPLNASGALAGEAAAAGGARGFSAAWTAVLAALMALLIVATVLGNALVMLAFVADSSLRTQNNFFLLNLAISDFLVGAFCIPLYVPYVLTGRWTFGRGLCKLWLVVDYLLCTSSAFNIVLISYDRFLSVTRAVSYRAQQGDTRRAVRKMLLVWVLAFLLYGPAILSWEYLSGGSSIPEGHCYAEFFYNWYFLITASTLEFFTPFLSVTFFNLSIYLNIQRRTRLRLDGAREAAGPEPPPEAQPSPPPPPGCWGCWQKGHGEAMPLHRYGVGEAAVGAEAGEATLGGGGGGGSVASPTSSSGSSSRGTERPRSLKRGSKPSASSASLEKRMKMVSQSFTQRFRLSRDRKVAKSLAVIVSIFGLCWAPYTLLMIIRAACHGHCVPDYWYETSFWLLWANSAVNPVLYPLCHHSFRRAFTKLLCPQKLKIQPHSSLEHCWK

Compound	Ki [nM]
C(=C\c1nc2ccccc2s1)/c1ccc(OCCCN2CCCCC2)cc1 [Example 3, (E)-2-[2-(4-Piperidinopropoxyphenyl)ethenyl]benzothiazole]	15
C(=C\c1nc2ccccc2o1)/c1ccc(OCCCN2CCCCC2)cc1 [Example 4, (E)-2-[2-[4-(3-Piperidinopropoxy)phenyl]ethenyl]benzoxazole]	13
C(=C\c1nc2ccccc2o1)/c1ccc(OCCCCN2CCCCC2)cc1 [Example 6, (E)-2-[2-(4-Piperidinobutoxyphenyl)ethenyl]benzoxazole]	34
CCN(CC)CCCCOc1ccc(/C=C/c2nc3ccccc3o2)cc1 [Example 7, (E)-2-[2-(4-Diethylaminobutoxyphenyl)ethenyl]benzoxazole]	48
CCN(CC)CCCOc1ccc(/C=C/c2nc3ccccc3o2)cc1 [Example 8, (E)-2-[2-(4-Diethylaminopropoxyphenyl)ethenyl]benzoxazole]	31
C(=C\c1nc2ccccc2o1)/c1ccc(OCCCCN2CCCC2)cc1 [Example 9, (E)-2-[2-(4-Pyrrolinobutoxyphenyl)ethenyl]benzoxazole]	17
CCCN(CCC)CCCOc1ccc(-c2nc3ccccc3s2)cc1 [Example 11, 2-(4-Dipropylaminopropoxyphenyl)benzothiazole]	173
CCCN(CCC)CCCCOc1c(C)cc(/C=C/c2nc3ccccc3s2)cc1C [Example 12, (E)-2-[2-(3,5-Dimethyl-4-dipropylaminobutoxyphenyl)ethenyl]benzothiazole]	1000

System: not given
Experiment: not given
Conditions: not given

Compound	melting point [°C]
C(=C\c1nc2ccccc2s1)/c1ccc(OCCCN2CCCCC2)cc1 (as salt: HCl) [Example 3, (E)-2-[2-(4-Piperidinopropoxyphenyl)ethenyl]benzothiazole]	215 to 217
C(=C\c1nc2ccccc2o1)/c1ccc(OCCCN2CCCCC2)cc1 (as salt: HCl) [Example 4, (E)-2-[2-[4-(3-Piperidinopropoxy)phenyl]ethenyl]benzoxazole]	127 to 128
C(=C\c1nc2ccccc2o1)/c1ccc(OCCCCN2CCCCC2)cc1 (as salt: HCl) [Example 6, (E)-2-[2-(4-Piperidinobutoxyphenyl)ethenyl]benzoxazole]	230 to 232
CCN(CC)CCCCOc1ccc(/C=C/c2nc3ccccc3o2)cc1 (as salt: HCl) [Example 7, (E)-2-[2-(4-Diethylaminobutoxyphenyl)ethenyl]benzoxazole]	219 to 220
CCN(CC)CCCOc1ccc(/C=C/c2nc3ccccc3o2)cc1 (as salt: HCl) [Example 8, (E)-2-[2-(4-Diethylaminopropoxyphenyl)ethenyl]benzoxazole]	225 to 226
C(=C\c1nc2ccccc2o1)/c1ccc(OCCCCN2CCCC2)cc1 (as salt: HCl) [Example 9, (E)-2-[2-(4-Pyrrolinobutoxyphenyl)ethenyl]benzoxazole]	229 to 232
CCCN(CCC)CCCOc1ccc(-c2nc3ccccc3s2)cc1 (as salt: HCl) [Example 11, 2-(4-Dipropylaminopropoxyphenyl)benzothiazole]	142 to 143
